Source: article PMC5118228 (EJNMMI Research, 2016)

Legend:
[1] = system: nontumor-bearing mice; assay type: in vivo; settings: control, 4 × 0.3 nmol unlabeled DOTATATE; nontumor-bearing mice; n=8
Description: MTD was defined as the highest dose given to the animals allowing 100% survival with no significant weight loss >15% throughout the experiment. Nontumor-bearing mice were randomly divided into seven cohorts used to evaluate MTD, six treatments and one control (n = 8/cohort); see Table 1. […] Control mice received DOTATATE (4 × 0.3 nmol) on four consecutive days. The animals were followed for 90 days. Serum was analyzed for the biomarker neutrophil gelatinase-associated lipocalin (NGAL) using ELISA (R&D Systems, 450 nm).

[2] = system: patients; settings: in vivo; cited from earlier work
From the text: Radiolabeled somatostatin analogs are known to accumulate in the renal proximal tubules, due to their net charge, electrostatic forces, and charge distribution from metal-chelation. This can result in a high absorbed dose and subsequent renal dysfunction.

Row | SMILES | survival at 90 days post-treatment [1] | reduction of renal uptake by co-infusion of L-lysine/L-arginine [2]
1 | C[C@@H](O)[C@H](NC(=O)[C@@H]1CSSC[C@H](NC(=O)[C@@H](Cc2ccccc2)NC(=O)CN2CCN(CC(=O)O)CCN(CC(=O)O)CCN(CC(=O)O)CC2)C(=O)N[C@@H](Cc2ccc(O)cc2)C(=O)N[C@H](Cc2c[nH]c3ccccc23)C(=O)N[C@@H](CCCCN)C(=O)N[C@@H]([C@@H](C)O)C(=O)N1)C(=O)O [DOTATATE] | all control animals survived | 
2 | C[C@@H](O)[C@H](NC(=O)[C@@H]1CSSC[C@H](NC(=O)[C@@H](Cc2ccccc2)NC(=O)CN2CCN(CC(=O)[O-])CCN(CC(=O)[O-])CCN(CC(=O)[O-])CC2)C(=O)N[C@@H](Cc2ccc(O)cc2)C(=O)N[C@H](Cc2c[nH]c3ccccc23)C(=O)N[C@@H](CCCCN)C(=O)N[C@@H]([C@@H](C)O)C(=O)N1)C(=O)O.[177Lu+3] [^177Lu-DOTATATE, ^177Lu-[DOTA^0,Tyr^3]octreotate] |  | 30–50%
